From patent publication US6613718B2, “Aryl ether derivatives and processes for their preparation and herbicidal and desiccant compositions containing them” (Ishihara Sangyo Kaisha, Ltd., priority 2001, dated 2003)

Experiments:
Assay type in all cases: in vivo
Conditions in all cases: 14 days after application
[1] = system: soybean (Glycine max L., var. Pella 86, SOY); experiment: Post-emerge greenhouse screening, crop safety (phytotoxicity rating)
Description: (§1) A standard greenhouse herbicide activity screening system was used to evaluate the herbicidal efficacy and crop safety of these test compounds. Seven broadleaf weed species including redroot pigweed (Amaranthus retroflexus, AMARE), velvetleaf (Abutilon theophrasti, ABUTH), sicklepod (Cassia obtusifolia, CASOB), ivyleaf morningglory (Ipomoea hederacea, IPOHE), lambsquarters (Chenopodium album, CHEAL), common ragweed (Ambrosia artemisiifolia L., AMBEL), and cocklebur (Xanthium strumarium, XANST) were used as test species. Four grass weed species including green foxtail (Setaria viridis, SETVI), barnyardgrass (Echinochloa crus-galli, ECHCG), johnsongrass (Sorghum halepense, SORHA), and large crabgrass (Digitaria sanguinalis, DIGSA) were also used. In addition, three crop species, field corn (Zea mays L., var. Dekalb 535, CORN), soybean (Glycine max L., var. Pella 86, SOY), and upland rice (Oryza sp., var.Tebonnet, RICE) were included.
(§2) All plants were grown in 10 cm square plastic pots which were filled with a sandy loam soil mix. For pre-emerge tests, seeds were planted one day prior to application of the test compounds. For post-emerge tests, seeds were planted 8-21 days prior to the test to allow emergence and good foliage development prior to application of the test substances. At the time of the post-emerge application, plants of all species were usually at the 2-3 leaf stage of development.
(§3) All test compounds were dissolved in acetone and applied to the test units in a volume of 187 1/ha. Test materials were applied at rates ranging from 15 g ai/ha to 1000 g ai/ha using a track sprayer equipped with a TJ8001E even flow flat fan spray nozzle. Plants were arranged on a shelf so that the top of the canopy (post-emerge) or top of the soil surface (pre-emerge) was 40-45 cm below the nozzle. Pressurized air was used to force the test solution through the nozzle as it was mechanically advanced (via electrically driven chain drive) over the top of all test plants/pots. This application simulates a typical commercial field herbicide application.
(§4) In the post-emerge test, a commercial non-ionic surfactant was also included (0.25% v/v) to enhance wetting of the leaf surfaces of target plants. Immediately after application, test units of the pre-emerge applications were watered at the soil surface to incorporate the test materials. Subsequently, these test units were bottom-watered. Post-emerge test units were always bottom-watered.
(§5) At 14 days after application of the test materials, phytotoxicity ratings were recorded. A rating scale of 0-100 was used as previously described in Research Methods in Weed Science, 2nd edition, B. Truelove, Ed., Southern Weed Science Society, Auburn University, Auburn, Ala., 1977. Briefly, “0” corresponds to no damage and “100” corresponds to complete death of all plants in the test unit. This scale was used both to determine efficacy against weed species and damage to crop species. Herbicide activity data for various compounds of this invention, which are shown by compound No. in Tables I-VI, are shown in Tables VIII-IX.

[2] = system: upland rice (Oryza sp., var.Tebonnet, RICE); experiment: as above
Description: as §1, §2, §3, §4, §5

[3] = system: field corn (Zea mays L., var. Dekalb 535, CORN); experiment: Post-emerge greenhouse screening, crop safety / corn selectivity (phytotoxicity rating)
Description: as §1, §2, §3, §4, §5

[4] = system: soybean (Glycine max L., var. Pella 86, SOY); experiment: Pre-emerge greenhouse screening, crop safety (phytotoxicity rating)
Description: as §1, §2, §3, §4, §5

[5] = system: upland rice (Oryza sp., var.Tebonnet, RICE); experiment: as above
Description: as §1, §2, §3, §4, §5

[6] = system: field corn (Zea mays L., var. Dekalb 535, CORN); experiment: as above
Description: as §1, §2, §3, §4, §5

[7] = system: redroot pigweed (Amaranthus retroflexus, AMARE); experiment: Post-emerge greenhouse herbicide activity screening, phytotoxicity rating
Description: as §1, §2, §3, §4, §5

[8] = system: sicklepod (Cassia obtusifolia, CASOB); experiment: as above
Description: as §1, §2, §3, §4, §5

[9] = system: ivyleaf morningglory (Ipomoea hederacea, IPOHE); experiment: as above
Description: as §1, §2, §3, §4, §5

[10] = system: large crabgrass (Digitaria sanguinalis, DIGSA); experiment: as above
Description: as §1, §2, §3, §4, §5

[11] = system: velvetleaf (Abutilon theophrasti, ABUTH); experiment: as above
Description: as §1, §2, §3, §4, §5

[12] = system: common ragweed (Ambrosia artemisiifolia L., AMBEL); experiment: as above
Description: as §1, §2, §3, §4, §5

[13] = system: johnsongrass (Sorghum halepense, SORHA); experiment: as above
Description: as §1, §2, §3, §4, §5

[14] = system: green foxtail (Setaria viridis, SETVI); experiment: as above
Description: as §1, §2, §3, §4, §5

[15] = system: lambsquarters (Chenopodium album, CHEAL); experiment: as above
Description: as §1, §2, §3, §4, §5

[16] = system: barnyardgrass (Echinochloa crus-galli, ECHCG); experiment: as above
Description: as §1, §2, §3, §4, §5

[17] = system: redroot pigweed (Amaranthus retroflexus, AMARE); experiment: Pre-emerge greenhouse herbicide activity screening, phytotoxicity rating
Description: as §1, §2, §3, §4, §5

[18] = system: sicklepod (Cassia obtusifolia, CASOB); experiment: as above
Description: as §1, §2, §3, §4, §5

[19] = system: ivyleaf morningglory (Ipomoea hederacea, IPOHE); experiment: as above
Description: as §1, §2, §3, §4, §5

[20] = system: large crabgrass (Digitaria sanguinalis, DIGSA); experiment: as above
Description: as §1, §2, §3, §4, §5

[21] = system: velvetleaf (Abutilon theophrasti, ABUTH); experiment: as above
Description: as §1, §2, §3, §4, §5

[22] = system: common ragweed (Ambrosia artemisiifolia L., AMBEL); experiment: as above
Description: as §1, §2, §3, §4, §5

[23] = system: johnsongrass (Sorghum halepense, SORHA); experiment: as above
Description: as §1, §2, §3, §4, §5

[24] = system: green foxtail (Setaria viridis, SETVI); experiment: as above
Description: as §1, §2, §3, §4, §5

[25] = system: lambsquarters (Chenopodium album, CHEAL); experiment: as above
Description: as §1, §2, §3, §4, §5

[26] = system: barnyardgrass (Echinochloa crus-galli, ECHCG); experiment: as above
Description: as §1, §2, §3, §4, §5

## Cn1c(C(F)(F)F)cc(=O)n(-c2cc(Oc3ncccc3C(F)(F)F)c(Cl)cc2F)c1=S [Compound 1-15]
[1]; 125 g ai/ha
  SOY crop damage, phytotoxicity rating (0-100 scale): 10
[1]; 250 g ai/ha
  SOY crop damage, phytotoxicity rating (0-100 scale): 10
[2]; 125 g ai/ha
  RICE crop damage, phytotoxicity rating (0-100 scale): 0
[2]; 250 g ai/ha
  RICE crop damage, phytotoxicity rating (0-100 scale): 0
[3]; 125 g ai/ha
  CORN crop damage, phytotoxicity rating (0-100 scale): 5
[3]; 250 g ai/ha
  CORN crop damage, phytotoxicity rating (0-100 scale): 5
[4]; 125 g ai/ha
  SOY crop damage, phytotoxicity rating (0-100 scale): 0
[4]; 250 g ai/ha
  SOY crop damage, phytotoxicity rating (0-100 scale): 35
[5]; 125 g ai/ha
  RICE crop damage, phytotoxicity rating (0-100 scale): 0
[5]; 250 g ai/ha
  RICE crop damage, phytotoxicity rating (0-100 scale): 0
[6]; 125 g ai/ha
  CORN crop damage, phytotoxicity rating (0-100 scale): 8
[6]; 250 g ai/ha
  CORN crop damage, phytotoxicity rating (0-100 scale): 8
[7]; 125 g ai/ha
  AMARE phytotoxicity rating (0-100 scale): 90
[7]; 250 g ai/ha
  AMARE phytotoxicity rating (0-100 scale): 90
[8]; 125 g ai/ha
  CASOB phytotoxicity rating (0-100 scale): 60
[8]; 250 g ai/ha
  CASOB phytotoxicity rating (0-100 scale): 65
[9]; 125 g ai/ha
  IPOHE phytotoxicity rating (0-100 scale): 75
[9]; 250 g ai/ha
  IPOHE phytotoxicity rating (0-100 scale): 100
[10]; 125 g ai/ha
  DIGSA phytotoxicity rating (0-100 scale): 0
[10]; 250 g ai/ha
  DIGSA phytotoxicity rating (0-100 scale): 0
[11]; 125 g ai/ha
  ABUTH phytotoxicity rating (0-100 scale): 95
[11]; 250 g ai/ha
  ABUTH phytotoxicity rating (0-100 scale): 95
[12]; 125 g ai/ha
  AMBEL phytotoxicity rating (0-100 scale): 55
[12]; 250 g ai/ha
  AMBEL phytotoxicity rating (0-100 scale): 55
[13]; 125 g ai/ha
  SORHA phytotoxicity rating (0-100 scale): 0
[13]; 250 g ai/ha
  SORHA phytotoxicity rating (0-100 scale): 0
[14]; 125 g ai/ha
  SETVI phytotoxicity rating (0-100 scale): 0
[14]; 250 g ai/ha
  SETVI phytotoxicity rating (0-100 scale): 0
[15]; 125 g ai/ha
  CHEAL phytotoxicity rating (0-100 scale): 100
[15]; 250 g ai/ha
  CHEAL phytotoxicity rating (0-100 scale): 100
[16]; 125 g ai/ha
  ECHCG phytotoxicity rating (0-100 scale): 0
[16]; 250 g ai/ha
  ECHCG phytotoxicity rating (0-100 scale): 0
[17]; 125 g ai/ha
  AMARE phytotoxicity rating (0-100 scale): 100
[17]; 250 g ai/ha
  AMARE phytotoxicity rating (0-100 scale): 100
[18]; 125 g ai/ha
  CASOB phytotoxicity rating (0-100 scale): 55
[18]; 250 g ai/ha
  CASOB phytotoxicity rating (0-100 scale): 85
[19]; 125 g ai/ha
  IPOHE phytotoxicity rating (0-100 scale): 95
[19]; 250 g ai/ha
  IPOHE phytotoxicity rating (0-100 scale): 100
[20]; 125 g ai/ha
  DIGSA phytotoxicity rating (0-100 scale): 99
[20]; 250 g ai/ha
  DIGSA phytotoxicity rating (0-100 scale): 100
[21]; 125 g ai/ha
  ABUTH phytotoxicity rating (0-100 scale): 100
[21]; 250 g ai/ha
  ABUTH phytotoxicity rating (0-100 scale): 100
[22]; 125 g ai/ha
  AMBEL phytotoxicity rating (0-100 scale): 75
[22]; 250 g ai/ha
  AMBEL phytotoxicity rating (0-100 scale): 90
[23]; 125 g ai/ha
  SORHA phytotoxicity rating (0-100 scale): 60
[23]; 250 g ai/ha
  SORHA phytotoxicity rating (0-100 scale): 98
[24]; 125 g ai/ha
  SETVI phytotoxicity rating (0-100 scale): 100
[24]; 250 g ai/ha
  SETVI phytotoxicity rating (0-100 scale): 100
[25]; 125 g ai/ha
  CHEAL phytotoxicity rating (0-100 scale): 100
[25]; 250 g ai/ha
  CHEAL phytotoxicity rating (0-100 scale): 100
[26]; 125 g ai/ha
  ECHCG phytotoxicity rating (0-100 scale): 50
[26]; 250 g ai/ha
  ECHCG phytotoxicity rating (0-100 scale): 65
